In patent publication US8304382B2, “Anti-inflammatory and anti-allergic cyclic peptides” (Cristalia Productos Quimicos Farmaceuticos Ltda., priority 2006, dated 2012):
Bridge positions count the residues as written; N and C are the ends. Peptide text beside a SMILES is read from it.

Tests used:
trypsin = molecular target: T1, trypsin (Bos taurus, UniProt P00760); test: Inhibition of trypsin, determination of inhibition constants (Ki); assay type: biochemical
T1 construct: gene PRSS1
T1 sequence (P00760 24-246): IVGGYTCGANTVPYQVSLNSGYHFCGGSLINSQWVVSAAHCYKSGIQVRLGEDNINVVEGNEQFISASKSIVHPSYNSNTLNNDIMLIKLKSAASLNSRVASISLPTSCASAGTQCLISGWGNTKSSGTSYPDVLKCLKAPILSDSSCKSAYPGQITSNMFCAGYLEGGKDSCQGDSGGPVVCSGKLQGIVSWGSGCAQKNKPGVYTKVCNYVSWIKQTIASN
Protocol: The substrate utilized was Abz-Phe-Arg-Ser-Ser-Arg-Gln-EDDnp (SEQ ID NO: 11), a fluorescent analog of bradykinin, purified by way of high pressure liquid chromatography, (HPLC) until purity greater than 95% (single peak) was achieved.
The hydrolysis reactions were conducted using a Hitachi. F-2000 spectrofluorometer, with the excitation and emission slits set at 10 and 20 nm, and the excitation and emission wavelengths at 320 and 420 nm, respectively. The temperature of the reaction cuvette was maintained at 37° C. in a thermostatically controlled compartment.
The enzymatic activity of trypsin (0.5-5 nM) was determined in 50 mM Tris-HCl buffer, pH 8.0, containing 20 mM NaCl at 37° C., with the addition of approximately 0.1-6.0 μM of the fluorescent substrates. The increase in fluorescence was monitored continually for 5 min in the spectrofluorometer. When necessary, the correction of the fluorescent reading was done using the empiric equation described by Araújo et. al., Biochemistry 25; 8519, 2000. Kinetic data were determined from the initial hydrolysis (consumption of substrate less than 10%) and calculations involving kinetic parameters (Km, Vmáx and kcat) were performed using the Michaelis-Menten equation furnished by the GRAFIT for Windows 3.0 program.
To determine the inhibition kinetics of trypsin with the peptides of the present invention, three substrate concentrations were used: a) corresponding to half of the value of Km (0.8 μM); b) corresponding to the whole value of Km (1.6 μM); c) corresponding to slightly more than double the value of Km (3.5 μM). […] Incubation carried out at 37° C. Tris-HCl buffer, pH 8.0, containing 20 mM NaCl at 37° C. For characterization of enzymatic inhibition, a Lineweaver-Burk plot was employed (1/V vs 1/S), and the value of Ki was determined from the relation between the apparent inhibition constant (Ki(app)) and the value of Km for the substrate: Ki(app)=[I]/[(v0/vi)−1] and Ki=Ki(app)/[(Km/[S])+1] where; [I]=inhibitor concentration; (v0/vi)=ratio of the hydrolysis velocities in the absence and presence of inhibitor, respectively. Km/[S]=ratio between Km of the substrate and substrate concentration.

[1] = test system: leukocytes and eosinophils recruited to the alveolar space; test: Acute pulmonary asthma induced by ovalbumin, bronchoalveolar lavage cell count; assay type: in vivo, BALB/c mice
Protocol: (§1) After the 14th day, the animals were submitted to 3 challenges per week with a 1% OVA aerosol, Immunized animals and challenged only with PBS (phosphate buffered saline) were considered controls. To induce chronic asthma, the animals were challenged 3 times a week during 3 consecutive weeks.
(§2) For the aerosol challenge, the animals were placed in a closed plastic box adapted with an ultra-sonic nebulizer (US-800, ICEL) and exposed to inhalation of 2 mL of a 1% solution of ovalbumin (grade V, Sigma) in saline, over 20 minutes, 24 h after the last aerosol challenge, the animals were sacrificed with a high dose of chloral hydrate to obtain the peripheral blood, the Broncho-Alveolar Lavage (BAL) and the pulmonary tissue to count the total number of leukocytes and eosinophils.
(§3) Groups of animals were treated with 4 nmol or 40 nmol of the peptide identified by SEQ ID NO: 7 intranasally and intraperitoneally 30 minutes before each challenge, and orally 1 hour before each challenge. The group of animals with chronic asthma was treated only with 4 nmol or 40 nmol of the peptide identified by SEQ ID NO: 7_intraperitoneally 30 minutes before each challenge.
(§4) The aerial space was washed with three, 1 mL aliquots of HBSS (Hanks Balanced Salt Solution) EDTA (ethylenediaminetetraacetic acid). After collection, the BAL was immediately centrifuged at 800 rpm for 10 minutes, the supernatant discarded, and the cellular button was re-suspended in 1 mL of HBSS 0.1% BSA (bovine serum albumin) to count the cells. The total cells from the BAL were counted in a Neubauer chamber. Aliquots containing 5×10^5 cells were centrifuged on glass slides using a cytocentrifuge, for 5 minutes at 600 rpm. To determine the percentages of the different cellular populations, the slides were stained with Hema 3 and 300 cells were counted in randomly selected fields. The absolute number of each cellular population in the BAL was obtained by multiplication of the percentages by the total number of cells found in the sample volume.

[2] = test system: recruitment of leukocytes in the peritoneal cavity; test: Prevention of peritonitis induced by LPS; assay type: in vivo, mice; details: 24 h
Protocol: Mice were injected intraperitoneally with 4 nmol or 40 nmol of the peptide identified by SEQ ID NO: 7 dissolved in 500 μL of sterile saline solution, 30 minutes prior to administering intraperitoneal injection of LPS (O55:BR 20 μg/mL, Sigma) diluted in 500 μL of sterile saline solution. Animals injected only with sterile saline were considered controls, 24 h after injection of LPS, the animals were sacrificed with a high dose of chloral hydrate to obtain the washing of the peritoneal cavity to count the number of cells (A), neutrophils (B) and macrophages (C). The material removed from the peritoneum was centrifuged for 10 minutes at 1500 rpm and 4° C., the supernatant was separated and frozen at −20° C. for future analyses, while the remaining material containing the cells was re-suspended in PBS 0.1% BSA. The total count was performed in a Neubauer chamber, For the differential count, an aliquot of the cellular suspension was placed on slides and centrifuged (Citospin), stained with Hema 3 and examined under the optical microscope, counting a total of 300 cells. The absolute number of each cellular population was obtained by multiplication of the percentages by the total number of cells found in the sample volume.

[3] = test system: leukocytes and eosinophils recruited to the alveolar space; test: Chronic asthma induced by ovalbumin, bronchoalveolar lavage cell count; assay type: in vivo, BALB/c mice
Protocol: as §1, §2, §3, §4

[4] = test system: leukocyte rolling in post-capillary venules of the cremaster muscle; details: topical, LPS-induced rolling; FIG. 2 and 3
[5] = 4 or 40 nmol i.p. 30 min before LPS, FIG. 4
[6] = 4 nmol or 40 nmol intraperitoneally, FIG. 6

## CC[C@H](C)[C@@H]1NC(=O)[C@H](CCC(=O)O)NC(=O)[C@H](CO)NC(=O)[C@@H](NC(=O)[C@H](CCC(N)=O)NC(=O)[C@H](CCC(N)=O)NC(=O)[C@@H](N)C(C)C)CSSC[C@@H](C(=O)O)NC(=O)[C@@H]2CCCN2C(=O)[C@H](CCCCN)NC(=O)[C@H](C)NC(=O)CNC(=O)[C@H](C)NC1=O [SEQ ID NO: 4, Val1-Gln2-Gln3-Cys4-Ser5-Glu6-Ile7-Ala8-Gly9-Ala10-Lys11-Pro12-Cys13] (H-VQQCSEIAGAKPC-OH; disulfide 4-13)
trypsin
  Ki: 42 nM

## CC[C@H](C)[C@H](N)C(=O)N1CCC[C@H]1C(=O)N[C@@H](CCCNC(=N)N)C(=O)N[C@H]1CSSC[C@@H](C(N)=O)NC(=O)[C@H](CCSC)NC(=O)[C@H](CCCCN)NC(=O)[C@H](C(C)C)NC(=O)CNC(=O)[C@@H]2CCCN2C(=O)[C@H](CCSC)NC(=O)[C@H](CCCCN)NC(=O)[C@H](CCCNC(=N)N)NC1=O [SEQ ID NO: 7, Ile1-Pro2-Arg3-Cys4-Arg5-Lys6-Met7-Pro8-Gly9-Val10-Lys11-Met12-Cys13-NH2] (H-IPRCRKMPGVKMC-NH2; disulfide 4-13)
[1]
  effect on recruitment of cells to the lung compared with oral dexamethasone 0.3 mg/Kg: similar
[1]; 4 nmol or 40 nmol, all routes (intranasal, intraperitoneal, oral), FIG. 5
  total number of leukocytes recruited to the alveolar space: provoked a decrease
[1]; 4 nmol or 40 nmol, all routes, FIG. 5
  eosinophils in the bronchoalveolar lavage: absence of eosinophils
trypsin
  Ki: 20 nM
[2]; 4 nmol and 40 nmol i.p. 30 min before LPS, compared to the control
  prevention of the recruitment of leukocytes in the peritoneal cavity: ~50%
[2]; [5]
  recruitment of macrophages in the peritoneal cavity: prevented the recruitment
  recruitment of neutrophils in the peritoneal cavity: prevented the recruitment
[3]
  effect on recruitment of cells to the lung compared with oral dexamethasone 0.3 mg/Kg: similar
[3]; [6]
  eosinophils in the bronchoalveolar lavage: decrease in eosinophils
  total number of leukocytes recruited to the alveolar space: provoked a decrease

## CC[C@H](C)[C@H](NC(C)=O)C(=O)N1CCC[C@H]1C(=O)N[C@@H](CCCNC(=N)N)C(=O)N[C@H]1CSSC[C@@H](C(N)=O)NC(=O)[C@H](CCSC)NC(=O)[C@H](CCCCN)NC(=O)[C@H](C(C)C)NC(=O)CNC(=O)[C@@H]2CCCN2C(=O)[C@H](CCSC)NC(=O)[C@H](CCCCN)NC(=O)[C@H](CCCNC(=N)N)NC1=O [SEQ ID NO: 9, Ac-Ile1-Pro2-Arg3-Cys4-Arg5-Lys6-Met7-Pro8-Gly9-Val10-Lys11-Met12-Cys13-NH2] (Ac-IPRCRKMPGVKMC-NH2; disulfide 4-13)
trypsin
  Ki: 21.8 nM

## Cys1-Arg2-Lys3-Met4-Pro5-Gly6-Val7-Lys8-Met9-Cys10 [SEQ ID NO: 12]
[4]
  inhibition of leukocyte rolling (in words): maintained inhibitory activity

## CC[C@H](C)[C@@H]1NC(=O)[C@H]([C@@H](C)O)NC(=O)[C@@H](NC(=O)[C@H](CCC(N)=O)NC(=O)[C@H](CCC(=O)O)NC(=O)[C@@H](N)C(C)C)CSSC[C@@H](C(=O)O)NC(=O)[C@H](CC(=O)O)NC(=O)[C@H](CCCCN)NC(=O)[C@H](C)NC(=O)[C@H](CC(=O)O)NC(=O)CNC(=O)[C@H]([C@@H](C)CC)NC1=O [SEQ ID NO: 3, Val1-Glu2-Gln3-Cys4-Thr5-Ile6-Ile7-Gly8-Asp9-Ala10-Lys11-Asp12-Cys13] (H-VEQCTIIGDAKDC-OH; disulfide 4-13)
trypsin
  Ki: 63.6 nM

## CC[C@H](C)[C@H](NC(C)=O)C(=O)N1CCC[C@H]1C(=O)N[C@@H](CCCNC(=N)N)C(=O)N[C@H]1CSSC[C@@H](C(=O)O)NC(=O)[C@H](CCSC)NC(=O)[C@H](CCCCN)NC(=O)[C@H](C(C)C)NC(=O)CNC(=O)[C@@H]2CCCN2C(=O)[C@H](CCSC)NC(=O)[C@H](CCCCN)NC(=O)[C@H](CCCNC(=N)N)NC1=O [SEQ ID NO: 8, Ac-Ile1-Pro2-Arg3-Cys4-Arg5-Lys6-Met7-Pro8-Gly9-Val10-Lys11-Met12-Cys13] (Ac-IPRCRKMPGVKMC-OH; disulfide 4-13)
trypsin
  Ki: 24.8 nM

## CC[C@H](C)[C@@H]1NC(=O)[C@H](CCCCN)NC(=O)[C@H](CC(=O)O)NC(=O)[C@@H](NC(=O)[C@H](CCCNC(=N)N)NC(=O)[C@H](Cc2c[nH]cn2)NC(=O)[C@@H](N)CC(C)C)CSSC[C@@H](C(=O)O)NC(=O)[C@@H]2CCCN2C(=O)[C@H](CCCCN)NC(=O)[C@H](C)NC(=O)[C@H](CC(=O)O)NC(=O)[C@H](C)NC1=O [SEQ ID NO: 5, Leu1-His2-Arg3-Cys4-Asp5-Lys6-Ile7-Ala8-Asp9-Ala10-Lys11-Pro12-Cys13] (H-LHRCDKIADAKPC-OH; disulfide 4-13)
trypsin
  Ki: 44 nM

## CC[C@H](C)[C@H](N)C(=O)N1CCC[C@H]1C(=O)N[C@@H](CCCNC(=N)N)C(=O)N[C@H]1CSSC[C@@H](C(=O)O)NC(=O)[C@H](CCSC)NC(=O)[C@H](CCCCN)NC(=O)[C@H](C(C)C)NC(=O)CNC(=O)[C@@H]2CCCN2C(=O)[C@H](CCSC)NC(=O)[C@H](CCCCN)NC(=O)[C@H](CCCNC(=N)N)NC1=O [SEQ ID NO: 1, Ile1-Pro2-Arg3-Cys4-Arg5-Lys6-Met7-Pro8-Gly9-Val10-Lys11-Met12-Cys13] (H-IPRCRKMPGVKMC-OH; disulfide 4-13)
trypsin
  Ki: 22.5 nM
trypsin; FIG. 1
  type of inhibition of trypsin: simple, competitive inhibition

## CC[C@H](C)[C@H](N)C(=O)N1CCC[C@H]1C(=O)N[C@@H](CCCNC(=N)N)C(=O)N[C@H]1CSSC[C@@H](C(=O)O)NC(=O)[C@H](CCSC)NC(=O)[C@H](CCCCN)NC(=O)[C@H](C(C)C)NC(=O)CNC(=O)[C@@H]2CCCN2C(=O)[C@H](CCSC)NC(=O)[C@H](C)NC(=O)[C@H](CCCNC(=N)N)NC1=O [SEQ ID NO: 6, Ile1-Pro2-Arg3-Cys4-Arg5-Ala6-Met7-Pro8-Gly9-Val10-Lys11-Met12-Cys13] (H-IPRCRAMPGVKMC-OH; disulfide 4-13)
trypsin
  Ki: 24.2 nM

## CC[C@H](C)[C@@H]1NC(=O)[C@H]([C@@H](C)O)NC(=O)[C@@H](NC(=O)[C@H](CCC(N)=O)NC(=O)[C@H](CCC(=O)O)NC(=O)[C@@H](N)C(C)C)CSSC[C@@H](C(=O)O)NC(=O)[C@H](CC(=O)O)NC(=O)[C@H](CCCCN)NC(=O)[C@H](CCC(=O)O)NC(=O)[C@H](CC(=O)O)NC(=O)CNC(=O)[C@H]([C@@H](C)CC)NC1=O [SEQ ID NO: 2, Val1-Glu2-Gln3-Cys4-Thr5-Ile6-Ile7-Gly8-Asp9-Glu10-Lys11-Asp12-Cys13] (H-VEQCTIIGDEKDC-OH; disulfide 4-13)
trypsin
  Ki: 24 nM
